Measured values as given in patent publication US12653880B2, “SARS-CoV-2 polypeptides” (priority 2021, dated 2026).

Legend:
C57BL/6J mice = assay: Antibody ELISA of sera from immunized mice; assay type: in vivo; conditions: listed in rank order
Protocol: Briefly, Immulon 4 HBX 96-well plates for ELISA are obtained from Thermo Fisher Scientific (Waltham, Mass.). The plate is coated with 1 μg/well of either a pool of peptides or individual peptides in coating buffer (50 mM sodium carbonate, pH 9.6) overnight at 4° C. After the coating buffer is removed, the plate is blocked with 2% BSA in PBS for 1 hour at room temperature, followed by washing three times with 0.5% Tween in PBS (PBST). Sera are diluted 1:200 in PBS and added to each well and the plate is incubated for 2 hours at room temperature. After incubation, the plate is washed three times with PBST. The secondary antibody is conjugated with HRP, and iss added at a 1:10,000 dilution in PBS. The plate is incubated for 1 hour at room temperature. After washing three times with PBST, TMBE-100 peroxidase substrate (Rockland Immunochemicals, Inc., Limerick, Pa.) is added, followed by 30 minutes incubation at room temperature. Finally, the enzymatic reaction is stopped by adding 2M H2SO4. Optical density at 450 nm (OD450) is read within 15 minutes after adding H2SO4 using a Spectramax® ABS Plus microplate reader (Molecular Devices, San Jose, Calif.) and the SoftMax® 7 Pro Software. […]

golden Syrian hamsters [1] = assay: IFN-γ ELISPOT of spleen and lymph node cells from immunized hamsters; assay type: in vivo; conditions: listed in rank order
golden Syrian hamsters [2] = assay: Peptide-specific antibody ELISA of sera from immunized hamsters; assay type: in vivo; conditions: listed in rank order
Protocol: Female golden Syrian hamsters (Charles River Laboratories, Wilmington, Mass.) are immunized with a 2-dose regimen with a 14-day interval between doses. Two weeks after the second dose, hamsters are euthanized. Hamster blood is collected by cardiac puncture and serum is prepared for the quantification of peptide-specific antibodies by an in-house indirect ELISA method. Spleens and draining lymph nodes serve as a source of cells for the IFN-γ ELISPOT and other assays. Unless otherwise noted, water-in-oil emulsions are administered subcutaneously, all other adjuvant formulations are administered intramuscularly.
A total of 52 peptides are tested for immunogenicity. Antibody responses in hamster sera specimens to individual peptides or peptide pools are quantified by ELISA.
Briefly, Immulon 4 HBX 96-well plates for ELISA are obtained from Thermo Fisher Scientific (Waltham, Mass.). The plate is coated with 1 μg/well of either a pool of peptides or individual peptides in coating buffer (50 mM sodium carbonate, pH 9.6) overnight at 4° C. […] Optical density at 450 nm (OD450) is read within 15 minutes after adding H2SO4 using a Spectramax® ABS Plus microplate reader (Molecular Devices, San Jose, Calif.) and the SoftMax® 7 Pro Software.

rVSV-SARS-CoV-2-S virus = conditions: in vivo

Sequence | Mice ELISA: top 10 immunogenic peptides, ranked on magnitude of responses (C57BL/6J mice) | Hamsters ELISPOT: top 10 immunogenic peptides, ranked on magnitude of responses (golden Syrian hamsters [1]) | Hamsters ELISA: top 10 immunogenic peptides, ranked on magnitude of responses (golden Syrian hamsters [2]) | neutralization activity of peptide-specific antibody (rVSV-SARS-CoV-2-S virus)
PQIQLAVTRMENAVGRD [ORF9b.1*11] | ORF9b.1*11 | ORF9b.1*11 | ORF9b.1*11 | –
SRIGMEVTPSGTWLTYTGAIKLDDKDPNFKDQVILLNKHIDAYK (N-overlap Long) | – | – | – | non-specific background
YFTSDYYQLYSTQLSTDTGV [ORF3a] | ORF3a | ORF3a | ORF3a | –
